Series [1] deals with T1, p38 MAPK/MK5 (Homo sapiens, UniProt Q16539).
T1 construct: purchased Carna (p38α); Abcam (MK5) 04-152; 217826
Kind of series: In vitro activity assay of p38 MAPK/MK5 (Z-LYTE kinase assay kit). The class given is biochemical. As to conditions: active p38α, inactive MK5, Ser/Thr 4; 4-hour reaction at 20° C. Here is the method: (§1) The inhibitory effect of the compound on p38 MAPK/MK5 was evaluated using the Z-LYTE kinase assay kit (Thermo, PV3177). The test compound was dissolved in DMSO to obtain a 10 mM stock solution and stored at −20° C. for future use. The initial concentration of the compound was […], with 1% DMSO, 5-fold serial dilution, 8 concentrations, and duplicate wells. […] After a 4-hour reaction at 20° C., Development Reagent A diluted 2048-fold was added to each well, followed by incubation at room temperature for 1 hour. The reaction was terminated by adding 5 µL of stop buffer, and the plate was read using a microplate reader (Ex. 400 nm, Em. 445 nm; Ex. 400 nm, Em. 520 nm). The concentration-effect curve was fitted using GraphPad Prism 8 software, and the compound concentration resulting in 50% inhibition, IC50, was calculated.

Series [2] in a line: In vitro liver microsome stability, human. The series is classed as in vitro ADME. As to conditions: liver microsomes, 0.5 mg/mL microsomes, 1 μM compound, NADPH, 37° C., read-out: Human liver microsomes Half-life T1/2. How it is done:
(§2) The reference compound used in this experiment was Ketanserin, and the final concentration of microsomes in the experimental system was 0.5 mg/mL. The PBS buffer was a 50 mM K2HPO4 buffer. The concentration of the test compound was 1 μM. The microsomes were added to PBS, and the control/test compounds were respectively added to the corresponding reaction systems, mixed thoroughly, and pre-incubated in a 37° C. water bath for 5 minutes. The reaction was initiated by adding 20 mM NADPH solution under 37° C. water bath conditions (for the No NADPH samples, an equal volume of PBS solution was used as a substitute for the 20 mM NADPH solution). At the reaction time points of 0 min, 10 min, 30 mun, 60 min, and 90 min, 30 μL of reaction samples were taken from each reaction system (for the No NADPH samples, sampling was performed at 0 min and 90 min), and the reaction was immediately terminated by adding 300 μL of the internal standard acetonitrile solution. After centrifugation at 4000 rpm, the supernatant was taken and mixed thoroughly with an equal volume of pure water. The samples at each time point were analyzed by LC-MS/MS (AB Triple Quard 5500) to determine the compound content, and the T1/2 was calculated.

The target of series [3] is T2, p38 MAPK/MK2 (Homo sapiens, UniProt Q16539).
T2 construct: purchased Carna (p38α); Abcam (MK2) 04-152; 79910
Kind of series: In vitro activity assay of p38 MAPK/MK2 (Z-LYTE kinase assay kit). The class given is biochemical. As to conditions: active p38α, inactive MK2, Ser/Thr 4; 1-hour reaction at 20° C. Here is the method:
as §1, with “MAPK/MK2” for “MAPK/MK5”, “1-hour” for “4-hour”, “μL” for “µL”

Series [4] has as its target T3, p38 MAPK/ATF2 (Homo sapiens, UniProt Q16539).
T3 construct: purchased Carna Biosciences (p38α); Sino Biological (ATF2) 04-152; 11599-H20B
Put plainly: In vitro activity assay of p38 MAPK/ATF2 (HTRF). The series is classed as biochemical. Conditions: p38α, Human ATF2 Protein, ATP; 35 min at 20° C. Here is the method: The inhibitory effect of the compound on p38a-catalyzed ATF2 was evaluated by the HTRF method. The test compound was dissolved in DMSO to obtain a 10 mM stock solution and stored at −20° C. for future use. The initial concentration of the compound was 10 μM, with 0.25% DMSO, 5-fold serial dilution, 8 concentrations, and duplicate wells. The reaction buffer, consisting of 40 mM Tris pH 7.5, 20 mM MgCl2, 0.1 mg/mL BSA, and 50 μM DTT, was used to prepare 3.5×p38α (MAPK14, Carna Biosciences, 04-152) protein working solution, 3.5×Human ATF2 Protein (Sino Biological, 11599-H20B) working solution, and 3.5×ATP working solution. The reaction was terminated with 10 mM EDTA. The final 14 μL reaction system was performed in a 96-well plate (cisbio, 66PL96025), containing 0.29 ng/μL p38a, […] Human ATF2 Protein, and 25 µM ATP. After reacting at 20° C. for 35 min, the pre-prepared antibody solution (cibio, 63ADK015PEG, Phospho-ATF2 Eu Cryptate antibody, Phospho-ATF2 d2 antibody, diluted 40-fold with Detection buffer) was added to each well and incubated overnight at room temperature. The samples were then measured using a microplate reader (HTRF compatible reader). The concentration-effect curve was fitted using GraphPad Prism 8 software, and the compound concentration resulting in 50% inhibition, IC50, was calculated.

The nature of series [5]: In vitro liver microsome stability, rat. The class given is in vitro ADME. Conditions: liver microsomes, 0.5 mg/mL microsomes, 1 μM compound, NADPH, 37° C., read-out: Rat liver microsomes Half-life T1/2. Here is the method: as §2
The nature of series [6]: In vitro liver microsome stability, mouse. The class given is in vitro ADME. Conditions: liver microsomes, 0.5 mg/mL microsomes, 1 μM compound, NADPH, 37° C., read-out: Mouse liver microsomes Half-life T1/2. How it is done:
as §2

Series [7] is described as follows: Pharmacokinetic evaluation in mice. Conditions: mouse, plasma; for AUC(0-t): read-out: Area under curve AUC0-24 h; for clearance: read-out: Clearance CL (converted); for half-life: read-out: Half-life T1/2 (converted); for C0: read-out: Initial concentration C0; for Vd: read-out: Volume of distribution Vd; for bioavailability: read-out: Bioavailability F %; for Cmax: read-out: Maximum concentration Cmax. The series is classed as in vivo. How it is done:
The compound was weighed and dissolved in a mixed solvent of DMAC: Solutol: PBS (1:1:8. After intravenous/gastric administration to mice, whole blood ([…]) was collected at 0.083, 0.25, 0.5, 1, 2, 4, 7, and 24 hours. The samples were anticoagulated with EDTA-K2, immediately centrifuged at 4000 rpm for 5 minutes at 4° C., and the supernatant was frozen in a −80° C. refrigerator. Plasma sample processing: The samples were precipitated with an internal standard-containing CH3CN precipitant, followed by centrifugation at 12700 rpm for 10 min. The supernatant was collected and analyzed by LC-MS/MS (AB Triple Quard 5500) to obtain the plasma drug concentration. The parameters were calculated using a non-compartmental model in Winnolin version 8.1.

For series [8], the system named is TNF-α in human PBMC cells. Put plainly: In vitro TNF-α activity assay in human PBMC cell supernatant (LPS, ELISA). The series is classed as cell-based. As to conditions: LPS 100 ng/mL, read-out: p38 MAPK/TNF-α IC50. How it is done:
The inhibitory effect of the compound on TNF-α in the supernatant of human PBMC cells was evaluated using an ELISA detection kit (Beyotime, PI518). The test compound was dissolved in DMSO to obtain a 10 mM stock solution and stored at −20° C. for future use. The initial concentration of the compound was […], followed by 5-fold serial dilution to obtain 6 concentrations. Cells were plated in duplicate, and ELISA was performed in single wells. The final concentration of DMSO was 0.4%. Alternatively, the initial concentration of the compound, dilution factor, number of concentration gradients, and replicates could be adjusted based on the specific screening conditions.
Fresh human peripheral blood mononuclear cells (PBMCs) (Sailybio) were seeded at a density of 2×10^5 cells per well in a 96-well plate (Corning, 3599), with each well containing 100 μL of RPMI-1640 (Gibco #A1049101)+10% FBS (Gibco, 10099141C), and incubated overnight at 37° C. under 5% CO2. Test compounds were added to the 96-well culture plate at a volume of 25 μL per well. After 1 hour, 5 μL of LPS was added to achieve a final concentration of 100 ng/mL. No LPS and compound were added to the negative control wells, and no compound was added to the positive control wells. The mixture was further incubated for 24 hours at 37° C. under 5% CO2. Subsequently, the cell culture supernatant was collected by centrifugation at 500 rcf for 8 minutes. The concentration of TNF-α was measured according to the operation manual of the ELISA kit. The concentration-effect curve was fitted using GraphPad Prism 8 software, and the compound concentration resulting in 50% inhibition, IC50, was calculated.

Setting [9] is: intravenous injection group 1 mg/kg.
Setting [10] is: po, intragastric administration group 5 mg/kg.

From patent US20260217652A1, “PHENYL-SUBSTITUTED HETEROARYL COMPOUND AND PHARMACEUTICAL COMPOSITION COMPRISING SAME, PREPARATION METHOD THEREFOR AND USE THEREOF” (SHANGHAI MEIYUE BIOTECH DEVELOPMENT CO., LTD., priority 2023, published 2026) come the findings set out here.

Read-outs that look alike come from different tables or passages of the source.

T2 sequence (Q16539 whole entry): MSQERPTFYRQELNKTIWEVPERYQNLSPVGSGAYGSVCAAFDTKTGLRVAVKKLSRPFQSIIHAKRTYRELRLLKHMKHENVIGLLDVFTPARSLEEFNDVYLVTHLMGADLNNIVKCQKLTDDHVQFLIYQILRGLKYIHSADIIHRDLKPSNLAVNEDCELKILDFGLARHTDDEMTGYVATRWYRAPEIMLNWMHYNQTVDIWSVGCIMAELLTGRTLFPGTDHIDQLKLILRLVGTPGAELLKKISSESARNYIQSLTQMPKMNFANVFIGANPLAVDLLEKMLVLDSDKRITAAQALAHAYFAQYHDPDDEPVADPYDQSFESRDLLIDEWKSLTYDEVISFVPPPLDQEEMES
T2 sequence (P49137 whole entry partner): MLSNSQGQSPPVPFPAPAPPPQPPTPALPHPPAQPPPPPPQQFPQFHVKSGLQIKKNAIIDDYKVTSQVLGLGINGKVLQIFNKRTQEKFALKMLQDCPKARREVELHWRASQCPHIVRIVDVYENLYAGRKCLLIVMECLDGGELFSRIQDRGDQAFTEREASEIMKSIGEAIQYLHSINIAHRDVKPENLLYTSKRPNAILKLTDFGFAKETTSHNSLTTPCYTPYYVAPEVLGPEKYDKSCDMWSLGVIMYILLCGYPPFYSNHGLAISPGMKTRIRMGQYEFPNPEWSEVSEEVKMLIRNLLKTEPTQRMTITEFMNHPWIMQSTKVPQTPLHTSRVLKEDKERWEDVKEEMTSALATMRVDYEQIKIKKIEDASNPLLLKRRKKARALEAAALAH
T1 sequence (Q16539 whole entry): as the sequence (Q16539 whole entry) above

`Cc1cnc(-c2cccc(C(=O)O)c2)cc1-n1c(C)cc(OCc2ncc(F)cc2F)c(Cl)c1=O` [Compound 1]: the IC50 in series [1] was 6080 nM; in series [3], 58.6 nM; in series [4] it was > 20000 nM. Moreover, the half-life at 1 μM in series [2], in series [5] and in series [6] was > 4.66 h each time.

With `Cc1cnc(-c2cccc(C(=O)N(C)C)c2)c(F)c1-n1c(C)cc(OCc2ncc(F)cc2F)c(Cl)c1=O` (single isomer, unassigned) [Compound 32-P1], the IC50 in series [1] was determined as 1650 nM. For the same compound, in series [7] (setting [9]), the AUC(0-t) was 842 ng·h/mL, the clearance was 21.1 mL/min/kg, the half-life is 0.35 h and the C0 was determined as 1790 ng/mL. Also, in series [7] (setting [9]), the Vd worked out at 0.49 L/kg. For the same compound, in series [7] (setting [10]), the AUC(0-t) came to 2350 ng·h/mL, the bioavailability amounted to 57.9%, the half-life was 1.54 h and the Cmax amounted to 1610 ng/mL. Moreover, the IC50 in series [8] (Homo sapiens, PBMC, 24 h) is 3.21 nM. In series [3], the IC50 was 0.51 nM. The IC50 in series [4] was determined as 3650 nM.

On to `Cc1cnc(-c2cccc(C(=O)N(C)C)c2)c(F)c1-n1c(C)cc(OCc2ncc(F)cc2F)c(Cl)c1=O` [Compound 32], for which the results for the IC50 in series [1], in series [8] (24 hours) and in series [3] were 6250 nM, 2.89 nM and 3.65 nM, respectively.

Regarding `Cc1cnc(-c2cccc(C(=O)O)c2)c(F)c1-n1c(C)cc(OCc2ncc(F)cc2F)c(Cl)c1=O` [Compound 29-P1], in series [7] (setting [9]), the AUC(0-t) stood at 1390 ng·h/mL, the clearance is 10.4 mL/min/kg, the half-life is 2.57 h and the C0 is 1450 ng/mL. In series [7] (setting [9]), the Vd worked out at 1.83 L/kg. In series [7] (setting [10]), the AUC(0-t) worked out at 6490 ng·h/mL, the bioavailability was 80.6%, the half-life is 3.37 h and the Cmax was 1380 ng/mL. Also, the half-life at 1 μM in series [2] is > 4.66 h. In series [3], the IC50 was determined as 4.86 nM. This compound also displayed an IC50 in series [4] of 1150 nM. In addition, the half-life at 1 μM in series [5] is > 4.66 h. The half-life at 1 μM in series [6] was > 4.66 h.

In the case of `Cc1cnc(-c2cccc([C@@](C)(O)CO)c2F)cc1-n1c(C)cc(OCc2ncc(F)cc2F)c(Cl)c1=O` [Compound 35-P1], the IC50 in series [1] amounted to 4670 nM; in series [8] (Homo sapiens, PBMC, 24 h) it was 1.9 nM; in series [3] it was 1.44 nM. Also, the half-life at 1 μM in series [2], in series [5] and in series [6] was > 4.66 h in each case.

As for `Cc1cnc(-c2cccc(C(N)=O)c2)cc1-n1c(C)cc(OCc2ncc(F)cc2F)c(Cl)c1=O` [Compound 4], the IC50 is 6590 nM in series [1]; 96.7 nM in series [8] (Homo sapiens, PBMC, 24 h); 50.5 nM in series [3]; > 20000 nM in series [4]. In addition, the half-life at 1 μM is > 4.66 h in series [2], > 4.66 h in series [5] and 2.93 h in series [6].

Take `Cc1cnc(-c2ccc(F)c([C@](C)(O)CO)c2)c(F)c1-n1c(C)cc(OCc2ncc(F)cc2F)c(Cl)c1=O` [Compound 51-P2]: the IC50 in series [1] amounted to 4490 nM; in series [3], 0.71 nM.

Regarding `Cc1cnc(-c2cccc(C(N)=O)c2)c(F)c1-n1c(C)cc(OCc2ncc(F)cc2F)c(Cl)c1=O` [Compound 30-P1], in series [1], the IC50 was found to be 5660 nM. Moreover, in series [7] (setting [9]), the AUC(0-t) stood at 1100 ng·h/mL, the clearance was 15.2 mL/min/kg, the half-life is 0.47 h and the C0 is 2410 ng/mL. In series [7] (setting [9]), the Vd turned out to be 0.41 L/kg. Further, in series [7] (setting [10]), the AUC(0-t) is 2640 ng·h/mL, the bioavailability is 48%, the half-life is 3.31 h and the Cmax is 1570 ng/mL. Further, the IC50 in series [8] (Homo sapiens, PBMC, 24 h) came out at 8.68 nM. In addition, the IC50 in series [3] was 0.16 nM.
